Drawing on PubChem BioAssay AID264 (DTP/NCI, 2004), this text covers T/C for 20 compounds.

Where “and” joins values, the source holds several entries; their conditions need not be identical. Equal entries are not always repeated. Inconclusive results are not listed.

The assay relates to nude mice, LX-1 lung xenograft intrarenal, tumor weight T/C. The experiment in a line: NCI In Vivo Anticancer Drug Screen. Data for tumor model Human Lung LX-1 Xenograft (intrarenal inoculation) in NU/NU Swiss (nude) mice. The settings on record: endpoint: mean tumor weight change, higher = larger tumour. A digest of the protocol:
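Readout: T/C, i.e. treated-group tumor measurement over vehicle-control measurement. Mice bearing transplantable tumors were dosed with compound or vehicle.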
(In xenograft studies the graft and the host belong to different species.)

[1] abbreviates: dose: 300.0 mg/kg/injection, schedule: Q04DX003 (sc), vehicle: Klucel (hydroxypropylcellulose) (HPC).
Setting [2] is: dose: 600.0 mg/kg/injection, schedule: Q04DX003 (sc), vehicle: Klucel (hydroxypropylcellulose) (HPC).
The mark [3] stands for this setting: dose: 1200.0 mg/kg/injection, schedule: Q04DX003 (sc), vehicle: Klucel (hydroxypropylcellulose) (HPC).
[4] abbreviates: dose: 300.0 mg/kg/injection, schedule: Q04DX003 (sc), vehicle: saline.
The mark [5] stands for this setting: dose: 600.0 mg/kg/injection, schedule: Q04DX003 (sc), vehicle: saline.
[6] abbreviates: dose: 12.5 mg/kg/injection, schedule: Q01DX010 (sc), vehicle: Klucel (hydroxypropylcellulose) (HPC).
[7] abbreviates: dose: 25.0 mg/kg/injection, schedule: Q01DX010 (sc), vehicle: Klucel (hydroxypropylcellulose) (HPC).
[8] abbreviates: dose: 50.0 mg/kg/injection, schedule: Q01DX010 (sc), vehicle: Klucel (hydroxypropylcellulose) (HPC).
[9] abbreviates: dose: 150.0 mg/kg/injection, schedule: Q04DX003 (sc), vehicle: Klucel (hydroxypropylcellulose) (HPC).
The mark [10] stands for this setting: dose: 600.0 mg/kg/injection, schedule: Q04DX003 (sc), vehicle: suspension in saline.
Setting [11] is: dose: 1200.0 mg/kg/injection, schedule: Q04DX003 (sc), vehicle: suspension in saline.
Where [12] appears, read: dose: 2400.0 mg/kg/injection, schedule: Q04DX003 (sc), vehicle: suspension in saline.

Take `CC(=O)C1=C(O)C2(O)C(=O)c3c(c(C)c4ccc(C)c(O)c4c3O)CC2C(N)C1=O` (configuration not stated): the T/C runs as follows: (dose: 50.0 mg/kg/injection, schedule: Q04DX003 (sc), vehicle: saline) 107 % of control; (dose: 100.0 mg/kg/injection, schedule: Q04DX003 (sc), vehicle: saline) 110 % of control; (dose: 200.0 mg/kg/injection, schedule: Q04DX003 (sc), vehicle: saline) 61 % of control; (dose: 400.0 mg/kg/injection, schedule: Q04DX003 (sc), vehicle: saline) 51 % of control.
Take `COC(=O)Nc1ccc(Cc2ccc(NC(=O)OC)cc2)cc1`: where the note is “dose: 800.0 mg/kg/injection, schedule: Q01DX010 (sc), vehicle: saline with Tween-80”, the T/C was 68 % of control.
`Cn1cc(C2NC(=O)c3ccccc3N2)c2ccccc21` (configuration not stated): the T/C is 31 % of control under setting [1], 32 % of control under setting [2] and -36 % of control under setting [3].
For `CC(=O)OC1C(O)C(C)OC(OC2C(OC(=O)C3CCC4C(C3)OC3(CC(OC(=O)/C=C/c5ccccc5)C(C)CO3)C43CO3)OC(C)C(O)C2OC(C)=O)C1O` (configuration not stated), the T/C by setting is: (dose: 15.0 mg/kg/injection, schedule: Q04DX003 (sc), vehicle: distilled water + Tween-80) 114 % of control; (dose: 30.0 mg/kg/injection, schedule: Q04DX003 (sc), vehicle: distilled water + Tween-80) 121 % of control; (dose: 60.0 mg/kg/injection, schedule: Q04DX003 (sc), vehicle: distilled water + Tween-80) 162 % of control.
As for `Cn1ccc(=Nc2ccc(NC(=O)c3ccc(N=c4ccn(C)c5ccc([N+](=O)[O-])cc45)cc3[N+](=O)[O-])cc2)cc1`, the T/C is 93 % of control (dose: 300.0 mg/kg/injection, schedule: Q04DX003 (sc), vehicle: saline with Tween-80); 75 % of control (dose: 600.0 mg/kg/injection, schedule: Q04DX003 (sc), vehicle: saline with Tween-80); 86 % of control (dose: 1200.0 mg/kg/injection, schedule: Q04DX003 (sc), vehicle: saline with Tween-80); 83 % of control (dose: 2400.0 mg/kg/injection, schedule: Q04DX003 (sc), vehicle: saline with Tween-80).
For the compound `CC1=NN(c2cccc(S(=O)(=O)O)c2)C(=O)C1N=Nc1cc(Cl)cc(S(=O)(=O)O)c1O.CC1=NN(c2cccc(S(=O)(=O)O)c2)C(=O)C1N=Nc1cc(Cl)cc(S(=O)(=O)O)c1O.[Cr]` (configuration not stated), the T/C (dose: 150.0 mg/kg/injection, schedule: Q04DX003 (sc), vehicle: saline) is 171 % of control; the T/C under setting [4] is 152 % of control; the T/C under setting [5] is 110 % of control.
For the compound `[N-]=[N+]=CC(=O)CCC(N)C(=O)O` (configuration not stated), the T/C reads like this: (dose: 0.05 mg/kg/injection, schedule: Q01DX010 (sc), vehicle: saline) 91 % of control; (dose: 0.37 mg/kg/injection, schedule: Q01DX010 (sc), vehicle: saline) 12 % of control; (dose: 0.75 mg/kg/injection, schedule: Q01DX010 (sc), vehicle: saline) -28 % of control.
For `COc1ccc(C(N)=O)cc1N=NN(C)C`, the T/C under setting [6] was 9 % of control; the T/C under setting [7] is 6 % of control and 15 % of control; the T/C (dose: 37.5 mg/kg/injection, schedule: Q04DX003 (sc), vehicle: Klucel (hydroxypropylcellulose) (HPC)) is 23 % of control; the T/C under setting [8] is -25 % of control; the T/C (dose: 75.0 mg/kg/injection, schedule: Q04DX003 (sc), vehicle: Klucel (hydroxypropylcellulose) (HPC)) was 13 % of control; the T/C under setting [9] is 8 % of control. For the same compound, the T/C under setting [1] is 8 % of control.
With `C/C(=N\NC(N)=O)c1cccc(/C(C)=N/NC(N)=O)n1`, the T/C by setting is: (dose: 100.0 mg/kg/injection, schedule: Q04DX003 (sc), vehicle: saline with Tween-80) 83 % of control; (dose: 200.0 mg/kg/injection, schedule: Q04DX003 (sc), vehicle: saline with Tween-80) 54 % of control; (dose: 400.0 mg/kg/injection, schedule: Q04DX003 (sc), vehicle: saline with Tween-80) 71 % of control; (dose: 800.0 mg/kg/injection, schedule: Q04DX003 (sc), vehicle: saline with Tween-80) 89 % of control.
As to `CCCCn1cnc2c(=S)nc[nH]c21`, the T/C is 69 % of control (dose: 300.0 mg/kg/injection, schedule: Q04DX003 (sc), vehicle: suspension in saline); 53 % of control under setting [10]; 61 % of control under setting [11]; 57 % of control under setting [12].
In the case of `CCCCNC(C)[C@]1(O)Cc2c(O)c3c(c(O)c2[C@@H](OC2CC(N)C(O)C(C)O2)C1)C(=O)c1c(OC)cccc1C3=O` (some centres not stated), the T/C was 69 % of control (dose: 6.25 mg/kg/injection, schedule: Q01DX010 (sc), vehicle: saline) and 68 % of control (dose: 12.5 mg/kg/injection, schedule: Q01DX010 (sc), vehicle: saline).
As for `Nc1nc(=O)n(C2OC(CO)C(O)C2O)cc1F` (configuration not stated), the T/C runs as follows: under setting [9], 74 % of control; under setting [1], 68 % of control; under setting [2], 84 % of control; under setting [3], 48 % of control.
With `COC(=O)NC1C(C)OC(OC2C/C=C(/C)C3C=CC4C(OC5CC(OC6CCC(OC7CC(O)C(OC8CCC(O)C(C)O8)C(C)O7)C(C)O6)C(OC(C)=O)C(C)O5)C(C)CC(C)C4C3(C)/C(O)=C3/C(=O)OC4(CC(C=O)=CC(O)C4/C=C\2C)C3=O)CC1(C)[N+](=O)[O-]` (configuration not stated), the T/C is, setting by setting: (dose: 12.5 mg/kg/injection, schedule: Q04DX003 (sc), vehicle: other) 63 % of control; (dose: 25.0 mg/kg/injection, schedule: Q04DX003 (sc), vehicle: other) 75 % of control; (dose: 50.0 mg/kg/injection, schedule: Q04DX003 (sc), vehicle: other) 100 % of control; (dose: 100.0 mg/kg/injection, schedule: Q04DX003 (sc), vehicle: other) 93 % of control.
As to `Nc1n[nH]c(N)n1`, the T/C was 109 % of control (dose: 200.0 mg/kg/injection, schedule: Q01DX010 (sc), vehicle: saline); 106 % of control (dose: 400.0 mg/kg/injection, schedule: Q01DX010 (sc), vehicle: saline); 84 % of control (dose: 800.0 mg/kg/injection, schedule: Q01DX010 (sc), vehicle: saline).
With `Cc1cc(NS(=O)(=O)c2ccc(N=Nc3cc(N=Nc4ccc(S(=O)(=O)Nc5cc(C)nc(C)n5)cc4)c4c(NC(=O)C(Cl)Cl)cccc4c3OC(=O)C(Cl)Cl)cc2)nc(C)n1` (tested in a mixture with another compound), the T/C is, setting by setting: under setting [10], 95 % of control; under setting [11], 115 % of control; under setting [12], 121 % of control.
Turning to `O=[N+]([O-])c1ccc(-n2[nH]nnc2=S)cc1`, the T/C by setting is: (dose: 50.0 mg/kg/injection, schedule: Q04DX003 (sc), vehicle: Klucel (hydroxypropylcellulose) (HPC)) 92 % of control; (dose: 100.0 mg/kg/injection, schedule: Q04DX003 (sc), vehicle: Klucel (hydroxypropylcellulose) (HPC)) 84 % of control; (dose: 200.0 mg/kg/injection, schedule: Q04DX003 (sc), vehicle: Klucel (hydroxypropylcellulose) (HPC)) 95 % of control; (dose: 400.0 mg/kg/injection, schedule: Q04DX003 (sc), vehicle: Klucel (hydroxypropylcellulose) (HPC)) 59 % of control.
On to `CN(Cc1cnc2nc(N)nc(N)c2n1)c1c(Cl)cc(C(=O)NC(CCC(=O)O)C(=O)O)cc1Cl` (configuration not stated), for which the T/C under setting [6] is 73 % of control, the T/C under setting [7] was 48 % of control and the T/C under setting [8] is 45 % of control.
For the compound `CSCS(=O)C[C@H](CO)NC(=O)/C=C/c1c(C)[nH]c(=O)[nH]c1=O` (some centres not stated), the T/C (dose: 0.75 mg/kg/injection, schedule: Q04DX003 (sc), vehicle: saline) is 76 % of control; the T/C (dose: 1.5 mg/kg/injection, schedule: Q04DX003 (sc), vehicle: saline) is 70 % of control; the T/C (dose: 3.0 mg/kg/injection, schedule: Q04DX003 (sc), vehicle: saline) was 68 % of control.
Take `NC(=S)c1cn(C2OC(CO)C(O)C2O)c2ncnc(N)c12` (configuration not stated): the T/C (dose: 6.25 mg/kg/injection, schedule: Q04DX003 (sc), vehicle: suspension in saline) is 58 % of control and the T/C (dose: 12.5 mg/kg/injection, schedule: Q04DX003 (sc), vehicle: suspension in saline) was 43 % of control.
On to `Nc1cccc(=O)[nH]1`, for which the T/C by setting is: under setting [4], 100 % of control; under setting [5], 110 % of control; (dose: 1200.0 mg/kg/injection, schedule: Q04DX003 (sc), vehicle: saline) 105 % of control.
